Test results published in patent US10968186B2, “Ascochlorin derivative and use thereof as AMPK activator” (priority 2016, dated 2021).
Values after ≈ are worked out from the molar mass of the structure shown. Each block holds one molecule with its values, some of them ahead of it.

Columns and labels:
[1] = system: Hep3B human liver cancer xenograft; assay: Antitumor activity in Hep3B human liver cancer xenograft model; format: in vivo, BALB/c nude mice; conditions: po 200 mg/kg once daily 5 days then 100 mg/kg 10 days; alone or in combination of sorafenib (80 mg/kg)
Procedure: Antitumor Activity of Compound 5 (po, qd×14) in Hep3B Human Liver Cancer Xenograft Model in BALB/c Nude Mice: Single Agent and Combination With Sorafenib
Each mouse was inoculated subcutaneously on the right flank with Hep3B tumor cells (5×106) in 0.1 ml of MEM-Matrigel mixture (1:1 ratio) for tumor development. The treatment started when the mean tumor size reached approximately 137 mm^3. Mice were then randomized into groups.
Compound 5 was dissolved in the vehicle (95% v/v PEG400+5% Tween 80) and orally administered to the tumor-bearing mice with 200 mg/kg, once daily for the first 5 days, followed by treatment with 100 mg/kg for 10 days.

U87-MG = assay: Anti-proliferative activity, CellTiterGlo assay, U87-MG; format: cell-based; conditions: Homo sapiens, U-87 MG, 96 hrs incubation, read-out: Antiproliferative activities IC50, U87-MG
Procedure: (§1) The anti-proliferative activities of the compounds against 6 human cancer cell lines were determined by CellTiterGlo assay kit. All cells were obtained from ATCC and cultured as recommended by the vendor. Cells were assayed in exponential growth phase. Sample solution was prepared by 3-fold serial dilution from 30 mM stock for 10 doses in DMSO. Antiproliferative activities were measured by CellTiterGlo assay kit according to the protocol after cells were incubated for 96 hrs in a 37° C., 5% CO2 incubator.
(§2) On the 4th day of incubation, i) 15 μl reagent (CelltiterGlo assay kit) was added per well and plate was shaken (avoiding light) for 2 mins on a plate shaker, ii) the plate was kept (avoiding light) in room temperature for 30 min, and iii) the luminescence value was recorded by Multiplate reader.

[2] = Stability against mouse liver microsomes; format: in vitro ADME; conditions: mouse LM, 2 μM compound, 60 min, NADPH
Procedure: (§3) Determination of Stability Against Mouse and Human Mirosomes
(§4) Pooled human liver microsomes (Cat. 452161; Lot. 23418) were purchased from Corning and pooled male mouse liver microsomes (Cat. M1000; Lot. 1210302) were purchased from Xenotech. Microsomes were stored at −80° C. prior to use. 40 μL of ultra-pure H2O was used instead of NADPH solution in the negative control. The negative control was used to exclude the misleading factor that was resulted from instability of chemical itself. Samples with NADPH were prepared in duplicate. Negative controls were prepared in singlet.
(§5) The reaction was started with the addition of 4 μL of 200 μM compound solution to each master solution to get the final concentration of 2 μM. Verapamil was used as positive control in the assay. Aliquots of 50 μL were taken from the reaction solution at 0, 15, 30, 45 and 60 min. The reaction was stopped by addition of 4 volumes of cold acetonitrile with IS (200 nM imipramine, 200 nM labetalol and 2 μM ketoprofen). Samples were centrifuged at 3,220 g for 40 minutes. Aliquot of […] of the supernatant was mixed with 90 μL of ultra-pure H2O and then was used for LC-MS/MS analysis. Results are shown in Table 3 by indicating remaining % of the test compound after 60 minutes incubation with liver microsomes from human and mouse in the presence of NADPH.

A549 = assay: Anti-proliferative activity, CellTiterGlo assay, A549; format: cell-based; conditions: Homo sapiens; A549, 96 hrs incubation; read-out: Antiproliferative activities IC50, A549
Procedure: as §1, §2

LNCaP = assay: Anti-proliferative activity, CellTiterGlo assay, LNCaP; format: cell-based; conditions: Homo sapiens, 96 hrs incubation, read-out: Antiproliferative activities IC50, LNCaP
Procedure: as §1, §2

HT29 = assay: Anti-proliferative activity, CellTiterGlo assay, HT29; format: cell-based; conditions: Homo sapiens, HT-29; HT29, 96 hrs incubation; read-out: Antiproliferative activities IC50, HT29
Procedure: as §1, §2

[3] = Stability against human liver microsomes; format: in vitro ADME; conditions: 2 μM compound
Procedure: as §3, §4, §5

MDA-MB-231 = assay: Anti-proliferative activity, CellTiterGlo assay, MDA-MB-231; format: cell-based; conditions: Homo sapiens; MDA-MB-231, 96 hrs incubation; read-out: Antiproliferative activities IC50, MDA-MB-231
Procedure: as §1, §2

BxPC-3 = assay: Anti-proliferative activity, CellTiterGlo assay, BxPC-3; format: cell-based; conditions: Homo sapiens; BxPC-3, 96 hrs incubation; read-out: Antiproliferative activities IC50, BxPC-3
Procedure: as §1, §2

[4] = Solubility in pH4.0 and pH7.4 phosphate buffer solution; format: physicochemical; conditions: 2 hr incubation, 25° C.
Procedure: 1) Preparation of Stock Solutions
Diclofenac was used as positive control in the assay.
2) Procedures for Solubility Determination
This study was performed in duplicate. […] The filtered samples were diluted with methanol.
3) Samples Analyzed by LC-MS/MS

[5] = Stability in acidic pH phosphate buffer solution (hydrolysis to MAC); format: physicochemical; conditions: room temperature
Text: Therefore, the Schiff base derivatives of MAC have the same problem in the metabolic stability as the parent compound, MAC.

- IC50 (U87-MG): 5.5 µM
- Liver microsome stability remaining % after 60 min incubation with NADPH, mouse LM [2]: 88%
- IC50 (A549): 2700 nM
- IC50 (LNCaP): 1800 nM
- IC50 (HT29): 2800 nM
- Liver microsome stability remaining % after 60 min incubation with NADPH, human LM [3]: 86%
- IC50 (MDA-MB-231): 2600 nM
- IC50 (BxPC-3): 3.2 µM
SMILES: CC(/C=C/[C@@]1(C)[C@H](C)CC/C(=N\O)[C@@H]1C)=C\Cc1c(O)c(C=O)c(C)c(Cl)c1OCF [Compound 5, 3-chloro-4-(fluoromethoxy)-6-hydroxy-5-[(2E,4E)-5-[(1R,2R,3E,6R)-3-(hydroxyimino)-1,2,6-trimethylcyclohexyl]-3-methylpenta-2,4-dien-1-yl]-2-methylbenzaldehyde]
- effect to reduce the proliferation of the liver cancer cells (tumor size) [1]: significant effect

- Solubility, pH 4.0 PBS ([4]; pH 4.0 phosphate buffer solution): converted to MAC
- solubility at 2 h ([4]; pH 7.4 phosphate buffer solution, read-out: Solubility, pH 7.4 PBS): 0.02 µM (≈ 9.5 ng/mL)
- hydrolysis to MAC at pH 4.0 phosphate buffer solution [5]: almost instantly hydrolyzed to MAC
SMILES: COc1c(Cl)c(C)c(C=NCC(N)=O)c(O)c1C/C=C(C)/C=C/[C@@]1(C)[C@H](C)CCC(=O)[C@@H]1C [compound #13 in WO2004/074236, reference compound]

- melting point: 42 to 43 °C
SMILES: COc1c(Cl)c(C)c(C=O)c(O)c1C/C=C(C)/C=C/[C@@]1(C)[C@H](C)CC[C@](C)(O)[C@@H]1C [Compound 1, 3-chloro-6-hydroxy-5-[(2E,4E)-5-[(1R,2R,3S,6R)-3-hydroxy-1,2,3,6-tetramethylcyclohexyl]-3-methylpenta-2,4-dien-1-yl]-4-methoxy-2-methylbenzaldehyde]
